Results on six compounds are retold here after publication PMC11705955, “Lack of activity of HIV-1 integrase strand-transfer inhibitors on recombinase activating gene (RAG) activity at clinically relevant concentrations” (Microbiology Spectrum, 2024).

Data set [1] concerns the target T1, recombinant human core RAG1 (AA387-1011)/core RAG2 (AA1-387) in the presence of HMGB1 (Homo sapiens, UniProt P15918+P55895).
T1 construct: made in house; host or cells: RAG1/RAG2 co-expressed in Expi293F GnTI human cells; HMGB1 in E. coli BL21DE3
T1 sequence (P15918 387-1011): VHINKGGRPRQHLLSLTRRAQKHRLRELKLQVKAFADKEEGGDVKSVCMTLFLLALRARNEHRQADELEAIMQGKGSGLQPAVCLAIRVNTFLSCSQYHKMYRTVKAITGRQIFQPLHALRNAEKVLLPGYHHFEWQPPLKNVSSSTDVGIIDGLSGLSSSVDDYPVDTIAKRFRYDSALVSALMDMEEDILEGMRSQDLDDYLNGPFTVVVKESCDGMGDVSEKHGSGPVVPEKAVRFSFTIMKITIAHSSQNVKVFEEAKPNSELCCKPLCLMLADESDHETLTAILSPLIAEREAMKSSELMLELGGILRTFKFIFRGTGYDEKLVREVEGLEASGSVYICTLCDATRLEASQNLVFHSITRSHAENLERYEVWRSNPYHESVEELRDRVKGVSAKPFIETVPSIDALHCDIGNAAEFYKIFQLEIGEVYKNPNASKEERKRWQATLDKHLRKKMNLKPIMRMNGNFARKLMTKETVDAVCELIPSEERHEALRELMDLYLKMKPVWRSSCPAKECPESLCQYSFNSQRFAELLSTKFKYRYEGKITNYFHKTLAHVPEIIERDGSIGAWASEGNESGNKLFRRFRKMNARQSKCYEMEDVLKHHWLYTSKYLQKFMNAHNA
T1 sequence (P55895 1-387): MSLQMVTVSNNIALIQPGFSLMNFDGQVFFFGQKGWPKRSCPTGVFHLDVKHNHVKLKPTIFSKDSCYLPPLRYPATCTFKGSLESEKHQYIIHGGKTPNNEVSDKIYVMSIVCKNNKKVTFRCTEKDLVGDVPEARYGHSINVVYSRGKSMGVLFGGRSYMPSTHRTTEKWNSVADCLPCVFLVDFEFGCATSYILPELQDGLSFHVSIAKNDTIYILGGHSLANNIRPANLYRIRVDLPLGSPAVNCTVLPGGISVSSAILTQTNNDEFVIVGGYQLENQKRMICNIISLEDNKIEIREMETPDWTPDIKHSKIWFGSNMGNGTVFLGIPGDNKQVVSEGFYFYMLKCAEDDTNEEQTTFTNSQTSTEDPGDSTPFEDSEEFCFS
The experiment in a line: Biochemical RAG DNA cleavage assay (gel-based, dsDNA 12RSS/23RSS substrate). Particulars: for IC50: 25 nM RAG1-RAG2, 575 nM HMGB1, 10 nM dsDNA, 5 mM MgCl2, 1 h 37°C, no serum; for Inhibitory activity against RAG1/RAG2 cleavage: clinically relevant / supratherapeutic concentrations. The text has this: To directly observe the potential inhibition of RAG1/RAG2, we measured the effect of INSTIs on DNA cleavage by RAG1/RAG2 in the presence of HMGB1. This biochemical system utilizes pre-assembled recombinant human core RAG1 (AA387-1011)/core RAG2 (AA1-387) in the presence of excess truncated HMGB1 (AA1-163) and a linear dsDNA RSS substrate, using gel electrophoresis and a fluorescent dye to monitor cleavage products (Fig. 2A) ([24]). The dsDNA RSS substrate, containing both the 12RSS and 23RSS, was designed to have the different cleavage products resolved via gel electrophoresis. RAG1/RAG2 can singly cleave either the 12RSS or the 23RSS, or both, leading to potentially five different products in the reaction (Fig. 2B). HMGB1 orients RAG1/RAG2 for proper binding to the RSS substrate ([16]). We quantified the activity of RAG as the percentage of substrate conversion to a specific cleaved product, as separated by agarose gel electrophoresis and determined by the DNA-binding fluorescent dye. With the 569-bp substrate, a single cleavage of the 12RSS results in a 492-bp dsDNA and a 77-bp hairpin. Cleavage of the 23RSS alone produces a 433-bp dsDNA and a 136-bp hairpin. Successful cleavage of both RSSs results in a 356-bp dsDNA and both of the 77- and 136-bp hairpins. For the RAG activity analysis, we measured the amount of double cleaved product (356 bp) in relation to the amount of substrate (569 bp) at the end of the reaction. The optimal concentrations of RAG1/RAG2, HMGB1, and MgCl2 were determined through titration (Fig. S2). Because there is no direct RAG1/RAG2 inhibitor previously characterized, we used suramin, a polyanionic compound commonly used as a non-specific inhibitor for DNA/RNA binding or processing proteins as a control for inhibition ([25], [26]).
Prior to the cleavage assay, compounds at the designated concentrations were spotted into 96-well plates using the Tecan Digital D300e (Tecan, Mannedorf, Switzerland). RAG1/RAG2 was incubated with HMGB1 and MgCl2 on ice for at least 15 min in a reaction buffer (25-mM 3-(N-morpholino)propanesulfonic acid [MOPS], pH 7.0, 50-mM KCl, and 2-mM DTT). After the initial incubation, the enzyme solution was added to the compound plates and incubated for an additional 15 min at room temperature. dsDNA substrate in reaction buffer was added to the plates to initiate the reaction. The final conditions of the reaction are 25-nM RAG1–RAG2 complex, 575-nM HMGB1, 10-nM dsDNA substrate, and 5-mM MgCl2. After 1 h at 37°C, reactions were quenched by the addition of final concentrations of 0.19% SDS, 45.5-µg/mL Proteinase K, and 60-mM EDTA.
Glycerol was added to a final concentration of 7.6% in each sample, and samples were loaded onto non-denaturing 6% Tris–borate–EDTA (TBE) gels in 1× TBE buffer. The samples were run at 100 V for 1.5 h, and gels were stained with 1× SYBR Gold in 1× TBE for 20 min. The stained gels were imaged with an Amersham Typhoon Biomolecular Imager.
The gel images were analyzed using ImageQuant software (Cytiva). The densities of the 569-bp-length substrate and fully cleaved 356-bp-length product were quantified. The product density was divided by the sum of substrate and product bands to obtain a percent product value. These calculated values were subtracted from a negative control (pre-quenched reaction where EDTA was added before reaction was initiated) and then normalized to the DMSO-treated control. The normalized data were plotted against concentration using GraphPad Prism (version 9.3; GraphPad Software, San Diego, CA, USA).

Data set [2] in a line: 5-day cytotoxicity assay with Cell Titer Glo readout, MRC5. It is filed as cell-based. The following applies: human. From the text: Supplemental Table S2. CC50 values for INSTIs in 5- day cytotoxicity as says with Cell Titer
Expi293F GALPC3 GALHEP HUH7 MRC5 MT4 PBMC PBMC
Kidney Prostate Hepatoma Hepatoma Lung T-cell line Primary Primary
(embryonic) cancer cell cell line cell line fibroblast cells
For orientation: In ATP-based viability assays light output follows the ATP content of the culture.

Structures are written as SMILES. Read-outs that look alike come from different tables or passages of the source.

On to `O=C(NCc1c(F)cc(F)cc1F)c1cn2c(c(O)c1=O)C(=O)N1[C@H]3CC[C@H](C3)O[C@@H]1C2` [BIC, bictegravir], for which, in data set [1], the 50% inhibitory concentration (IC50) was more than 0.5 µM and the “Inhibitory activity against RAG1/RAG2 cleavage” value was “do not show inhibitory activity”. In data set [2], this compound yielded a CC50 at 5 day of more than 44.4 µM.

On to `C[C@H]1CO[C@@H]2Cn3cc(C(=O)NCc4ccc(F)cc4F)c(=O)c(O)c3C(=O)N12` [CAB, cabotegravir], for which, in data set [1], the IC50 was more than 0.5 µM and the “Inhibitory activity against RAG1/RAG2 cleavage” value is given as “do not show inhibitory activity”. In data set [2], this compound registered a CC50 at 5 day of 28.1 µM.

For `C[C@@H]1CCO[C@H]2Cn3cc(C(=O)NCc4ccc(F)cc4F)c(=O)c(O)c3C(=O)N12` [DTG, dolutegravir], the IC50 in data set [1] was more than 0.5 µM. The same compound showed a CC50 at 5 day in data set [2] of 38.2 µM.

`COc1cc2c(cc1Cc1cccc(Cl)c1F)c(=O)c(C(=O)O)cn2[C@H](CO)C(C)C` [EVG, elvitegravir]: in data set [1], the IC50 was more than 0.5 µM and the “Inhibitory activity against RAG1/RAG2 cleavage” value is “do not show inhibitory activity”. The CC50 at 5 day in data set [2] came out at 14.3 µM.

With `Cc1nnc(C(=O)NC(C)(C)c2nc(C(=O)NCc3ccc(F)cc3)c(O)c(=O)n2C)o1` [RAL, raltegravir], in data set [1], the IC50 was more than 10 µM and the “Inhibitory activity against RAG1/RAG2 cleavage” value is listed as “do not show inhibitory activity”. The CC50 at 5 day in data set [2] (MRC5, 5-day, Cell Titer Glo, read-out: CC50) was more than 44.4 µM.

With `O=C(/C=C(\O)c1nnn[nH]1)c1c[nH]c2ccc(Cl)cc12` [p8, 5-CITEP], the IC50 in data set [1] is 58.2 ± 5.6 µM. Moreover, in data set [2], the CC50 at 5 day was more than 44.4 µM.

Usually IC50 stands for the concentration at which inhibition is half-maximal. By CC50 is commonly meant the concentration giving 50% cytotoxicity.
